Where two headings read alike, the source gives them in different places.

The subject of series [1] is 392-nucleotide dsDNA. As to the kind of experiment: Primer extension assay on 392-nucleotide dsDNA (DNA modification). Type of series: biochemical. To be noted: dsDNA treated with agent; compound 25 followed by oxidative activation (Na2IrCl6).
Series [2] relates to human CD34+ blood stem/progenitor cells. As to the kind of experiment: Cytotoxicity, MTT assay on CD34+ blood stem/progenitor cells. Format: cell-based. To be noted: normal blood stem cells, read-out: IC50 against CD34+ blood stem/progenitor cells. The source says: (§1) To assess the anti-cancer activity against AML, transformed cells were compared to closely related, non-transformed counterparts. In the case of AML, the generally accepted non-transformed cell of origin is the human CD34+ blood stem/progenitor cell. Assessing potency against normal blood stem cells is important since, without selective cytotoxicity, an agent will yield reduced efficacy and therapeutic potential. […] Therefore, a comparison of current agents and the ROS-activated compounds disclosed herein was carried out. (FIG. 3). Cytotoxicity was measured via MTT assay on CD34+ blood stem/progenitor cells (grey lines) and on the MA9.3 AML cell line (black lines), which was derived from the transformation of human CD34+ cells by introduction of the leukemia oncogene MLL-AF9.

Series [3] has as its system MA9.3 AML cells. As to the kind of experiment: AML cytotoxicity, MTT assay on MA9.3 AML cell line. Format: cell-based, human. To be noted: read-out: IC50 against MA9.3 AML cells.
Source text: as §1
On the technique in general: Formazan colour is commonly taken as a measure of viable cells.

The test system of series [4] is leukemia cell lines. As to the kind of experiment: NCI-60 Sulforhodamine B growth inhibition, leukemia cell lines. Type of series: cell-based. The settings on record: median in all leukemia cell lines tested. On the procedure:
(§2) Compounds 25 and 9 were evaluated for effects on the viability of the cell lines in the NCI-60 cell panel. […] Data is reported as growth inhibition GI50, rather than IC50, to reflect the change in cell counts relative to the starting number of cells.
(§3) Growth inhibition pattern induced by 25 and 9 based on the type of cancer was also analyzed. […] The majority of leukemia and renal cancer cell lines were above the median, indicating enhanced sensitivity to ROS-activating compounds. The current results further substantiate renal carcinoma as a potential target.

Series [5] relates to renal and CNS cancer cell lines. As to the kind of experiment: Sulforhodamine B viability assay, renal and CNS cancer cell lines. Format: cell-based. The settings on record: panels of renal and CNS cancer cell lines, errors less than 25%. In general terms: Sulforhodamine B stains cellular protein and so reports cell mass.
In series [6] the test system is MOLT-4. As to the kind of experiment: NCI-60 Sulforhodamine B growth inhibition, MOLT-4. Format: cell-based. The settings on record: Homo sapiens; MOLT-4, ALL model line. On the procedure: as §2, §3
In series [7] the test system is RPMI-8226. As to the kind of experiment: NCI-60 Sulforhodamine B growth inhibition, RPMI-8226. The settings on record: Homo sapiens; RPMI-8226, plasmacytoma and myeloma cell line. Type of series: cell-based. Here is the method:
as §2, §3

The subject of series [8] is CCRF-CEM. As to the kind of experiment: NCI-60 Sulforhodamine B growth inhibition, CCRF-CEM. The settings on record: Homo sapiens, ALL model line. Format: cell-based. Here is the method: as §2, §3
The subject of series [9] is HL-60. As to the kind of experiment: NCI-60 Sulforhodamine B growth inhibition, HL-60. Type of series: cell-based. The settings on record: Homo sapiens; HL-60, acute promyelocytic leukemia model. On the procedure:
as §2, §3

The test system of series [10] is HeLa cells. As to the kind of experiment: HeLa cell viability, MTT assay. Type of series: cell-based. To be noted: Homo sapiens, 50% reduction in percent of viable HeLa cells, read-out: IC50 against HeLa Cells. On the procedure:
Table 1 sets forth ROS-Activated compounds of the present invention, together with their IC50 values corresponding to a 50% reduction in the percent of viable HeLa cells in vitro as measured via MTT assay.
All synthesized compounds were purified to greater than 98% purity prior to cell testing. HeLa cell viability assays were performed using an MTT assay.
The general structure of the ROS-activated compounds disclosed herein was probed to determine how positions in the structure alter potency in aqueous media. Compounds were screened against HeLa cells to determine IC50 values. Cell viability was monitored by an MTT dye that forms a purple formazan product in viable cells that are undergoing metabolism. […] Errors reported are between two separate experiments; independent curve-fitting had r greater than 0.95).

The test system of series [11] is NCI-60 cell panel. As to the kind of experiment: NCI-60 cell panel, Sulforhodamine B growth inhibition. To be noted: for range of GI50 values: distribution of GI50 over NCI-60 panel. Type of series: cell-based. Here is the method: as §2
Series [12] concerns Drosophila. As to the kind of experiment: Drosophila survival after microinjection, Ercc1 RNAi knockdown versus control. To be noted: 0.5 μL of 10 mM injected.
Series [13] can be described thus: Oxidation and ROS-dependent hydrolysis of compound 3, monitored by reverse-phase HPLC. Format: physicochemical. The source says: The oxidative and ROS-activation of the instantly disclosed compounds was investigated. Water, one of the simplest nucleophile substrates, was examined under different oxidative conditions (FIG. 5). A model ROS-activated compound, compound 3, was used to explore the chemical reactivity of these agents (FIG. 5A).
Hydrolysis of compound 3 as a function of time was quantified by separation of the reaction products by reverse-phase HPLC (FIG. 5B). […] To obtain quantifiable data, time points were taken daily over one week.
Addition of the one-electron oxidant, […], led to quantitative hydrolysis of compound 3 with a half-life of 0.4±0.2 hours (FIG. 5B). The oxidation potential of Ir(IV) is 0.7 volts vs. Ag/AgCl making it an appropriate choice for oxidation of hydroquinone derivatives. In additional to oxidation, cells produce reactive oxygen species in the forms of hydroxyl radical and singlet oxygen. Copper and hydrogen peroxide can be used to produce hydroxyl radical. […] The extent of hydrolysis was dependent on the hydrogen peroxide concentration and was slow due to lack of ascorbate (data not shown). Oxidases like horseradish peroxidase reduce molecular oxygen to either hydrogen peroxide or water and at the same time oxidize a substrate with an appropriate potential. The oxidation of compound 3 was difficult to measure via HPLC since after one minute approximately half (53±13%) of compound 3 was hydrolyzed.

In series [14] the test system is ACHN. As to the kind of experiment: Sulforhodamine B total protein content assay, ACHN. Type of series: cell-based. The settings on record: Homo sapiens; ACHN renal cancer cells. On the procedure:
(§4) The sensitivity of renal cancer cells to treatment with compound 25 was investigated. Compound 25 was evaluated for effects on viability using a sulforhodamine B total protein content assay at the NCI Developmental Therapeutics Program. The method uses total protein content and was developed by Monks et al., Feasibility of a high-flux anticancer drug screen using a diverse panel of cultured human tumor cell lines, J. Natl. Cancer Inst. 83:757-66 (1991). Briefly, cells are treated with compound 25 and then fixed to the plate surface. The number of cells is proportional to the relative amount of protein as measured by sulforhodamine B. Seven renal cancer cell lines were examined: 786-0, A498, ACHN, CAKI-1, RXF 393, SN12C, and UO-31. Data at the NCI was then fit to sigmoid and the IC50 and fitting error determined

Series [15] relates to renal cancer cells. As to the kind of experiment: Sulforhodamine B total protein content assay, renal cancer cell lines (NCI). Type of series: cell-based. The settings on record: Homo sapiens; median over seven renal cancer cell lines. On the procedure: as §4
The subject of series [16] is SR-91. As to the kind of experiment: NCI-60 Sulforhodamine B growth inhibition, SR-91. Type of series: cell-based. To be noted: SR-91, acute lymphoblastic leukemia model. Here is the method:
as §2, §3

Series [17] relates to SN12C. As to the kind of experiment: Sulforhodamine B total protein content assay, SN12C. Format: cell-based. The settings on record: Homo sapiens; SN12C renal cancer cells. On the procedure:
as §4

The test system of series [18] is CAKI-1. As to the kind of experiment: Sulforhodamine B total protein content assay, CAKI-1. Format: cell-based. To be noted: Homo sapiens; CAKI-1 renal cancer cells. Here is the method: as §4

Take `N.N.[Cl][Pt][Cl]` [cisplatin]: the “full-length extension product yield” value in [1] is “no full-length extension product”. Also, the IC50 in series [2] stood at 15000 ± 2000 nM; in [3] it was 14000 ± 700 nM.

For the molecule `COc1cccc2c1C(=O)c1c(O)c3c(c(O)c1C2=O)C[C@@](O)(C(=O)CO)C[C@@H]3O[C@H]1C[C@H](N)[C@H](O)[C@H](C)O1` [doxorubicin], the IC50 in series [2] (Homo sapiens) was 76 ± 18 nM; in series [3] (Homo sapiens), 86 ± 50 nM.

Regarding `CN(CCCOc1ccc(O)cc1)c1ccccc1` [Compound 9, 4-(3-(methyl(phenyl)amino)propoxy)phenol], the GI50 worked out at 1900 nM in series [4]; 2000 nM in series [6]; 1200 nM in series [7]; 263 nM in series [8]; 900 nM in series [9]. The IC50 entry in series [5] was “micromolar range”; in [2] (Homo sapiens) it was 5400 ± 900 nM; in series [10] it was 7000 nM; in [3] (Homo sapiens) it was 700 ± 200 nM. Besides, the “range of GI50 values” in series [11] came out at 53 fold.

Consider `CCN(CCOc1ccc(O)cc1)c1ccccc1` [Compound 3, 4-(2-(ethyl(phenyl)amino)ethoxy)phenol], for which the “death on Day 1” value is on record as 60% in series [12] (Drosophila lacking Ercc1 expression (da-GAL4/UAS-Ercc1RNAi)) and 10% in series [12] (control flies with wild-type Ercc1 expression (da-GAL4/+)). Further, the half-life in [13] (one-electron oxidant Na2Ir2Cl6 added, addition of one-electron oxidant Na2Ir2Cl6) was 0.4 ± 0.2 h; in [13] (oxidation by copper chloride-hydrogen peroxide (hydroxyl radical)), 12.1 h; in series [13] (phosphate buffer, no oxidant, assuming first order kinetics), 693 ± 42 h. Besides, in series [10], the IC50 turned out to be 23000 nM.

On to `O=C(O)CCCc1ccc(N(CCCl)CCCl)cc1` [chlorambucil], for which the IC50 in series [2] (Homo sapiens) turned out to be 11000 ± 1000 nM; in series [3] (Homo sapiens), 8700 ± 300 nM.

Turning to `Nc1ccn([C@@H]2O[C@H](CO)[C@@H](O)[C@@H]2O)c(=O)n1` [ara-C, cytosine arabinoside], the IC50 in series [2] came out at 590 ± 90 nM; in series [3], 920 ± 30 nM.

On to `O=C(O)CCCc1ccc(N(CCOc2ccc(O)cc2)CCOc2ccc(O)cc2)cc1` [Compound 28, 4-(4-(bis(2-(4-hydroxyphenoxy)ethyl)amino)phenyl)butanoic acid], for which the IC50 in [10] worked out at 67000 nM.

Regarding `Oc1ccc(OCCN(CCOc2ccc(O)cc2)c2ccccc2)cc1` [Compound 25, 4,4′-(2,2′-(phenylazanediyl)bis(ethane-2,1-diyl)bis(oxy))diphenol], the IC50 in series [14] was determined as 360 ± 90 nM; in series [15], 1800 nM; in [17], 21000 ± 1200 nM; in series [2] (Homo sapiens), 16000 ± 1000 nM; in [10] it was 11000 nM; in series [3] (Homo sapiens) it was 3000 ± 200 nM. Besides, the IC50 in [18] was 370 ± 40 nM. In addition, the GI50 in [6] amounted to 1300 nM; in series [7], 3800 nM; in series [16], 470 nM; in [11] (median over NCI-60 panel, Sulforhodamine B), 3900 nM. For the same molecule, the “range of GI50 values” in series [11] is given as 55 fold.

Consider `CN(CCCSc1ccc(O)cc1)c1ccccc1` [Compound 16, 4-((3-(methyl(phenyl)amino)propyl)thio)phenol], for which the IC50 in series [10] stood at 44000 nM.

In general, GI50 refers to the concentration that inhibits growth by half. The low end stands for more potent growth inhibition, the high end for less potent growth inhibition. The half-life is how long it takes for the measured level to halve. Read a high half-life as slow decline.

The values are drawn from patent US9394233B2, “ROS-activated compounds as selective anti-cancer therapeutics” (University of Cincinnati, priority 2012, dated 2016).
